Experimental data from US12060576B2, “Compositions and methods for producing megakaryocytes” (Stellular Bio, Inc., priority 2018, dated 2024).

How the values were obtained:
PBG1 iPSCs [1] = experiment: Phase I directed differentiation of PBG1 iPSCs to hemogenic endothelium, immunofluorescence staining of CD31 and CD34; type: cell-based, human; settings: Laminin 521 matrix, versus control without WNT agonist
Description: FIG. 26A, FIG. 26B, and FIG. 26C depict immunofluorescence microscopy images of Day 6 Phase I cultures on Laminin 521. FIG. 26A depicts a control culture without WNT agonist.

PBG-1 iPSCs = experiment: Directed differentiation of PBG-1 to preMKs and MKs on a recombinant Laminin-521 matrix compared with Collagen IV, flow cytometry; type: cell-based, human; settings: 3 days of Phase III (Day 6+6+3); preMKs from Laminin-521 or Collagen IV cultures
Description: FIG. 23A, FIG. 23B, and FIG. 23C depict use of recombinant Laminin 521 to support production and release of megakaryocytic progenitors in Phase II of directed differentiation of PBG1 cells. FIG. 23A depicts representative flow cytometric data from Phase II of PBG1 differentiation cultures utilizing a supportive matrix of 4.2 ug/cm^2 human Collagen IV. FIG. 23B depicts representative flow cytometric data from Phase II of PBG1 differentiation cultures utilizing a supportive matrix of 0.13 ug/cm^2 recombinant human Laminin 521. FIG. 23C depicts the cumulative yields of released preMKs (i.e. viable CD41+CD43+CD14−) per 6-well equivalent (i.e. 2 ml of media, 9.5 cm^2 surface area) between day 6+4 and 6+8 of Phase II directed differentiation cultures initiated with PBG1 iPSCs, utilizing a supportive matrix of 4.2 ug/cm^2 human Collagen IV or 0.13 ug/cm^2 recombinant human Laminin 521.
FIG. 25A and FIG. 25B show flow cytometric subset breakdowns of Phase III (Day 6+6+3) cultures. […] Non-MKs are CD61−, Immature MKs are CD61+CD42a−CD42b−, Apoptotic MKs are CD61+CD42a+CD42b−, and Mature MKs are CD61+CD42a+CD42b+.
Collagen IV is purified from human placental material and is only available as a Research Use Only reagent. […]

PBG1 iPSCs [2] = settings: 0.6 uM in the first 48 hours of Phase I; Day 6+4; Laminin 521 matrix; versus control

Cc1c[nH]c(-c2cnc(NCCNc3ccc(C#N)cn3)nc2-c2ccc(Cl)cc2Cl)n1 [CHIR99021]
Phase I differentiation efficiency at day 6 (CD31 and CD34 staining) (PBG1 iPSCs [1]; 6 uM for the first 48 hours of differentiation only): dramatic increase

Laminin-521: recombinant human laminin 521, supportive matrix replacing Collagen IV for directed differentiation
Proportion of CD61+ cells co-expressing CD42a and CD42b in Phase III versus Collagen IV (PBG-1 iPSCs): found to be similar

CHIR98014
Phase I differentiation efficiency at day 6 (CD31 and CD34 staining) (PBG1 iPSCs [1]; 0.6 uM for the first 48 hours of differentiation only): dramatic increase
Phase II output of preMKs (visual estimation of the number of CD41+ cells) (PBG1 iPSCs [2]): higher output during Phase II
